13 compounds from patent US10364263B2, “Cyclic phosphates and cyclic phosphoramidates for the treatment of neurologic disorders” (Retrophin, Inc., priority 2015, dated 2019) can be followed below.

Series [1] is described as follows: Stability in human plasma. It counts as in vitro ADME. As to conditions: 37° C.; for t1/2, Human Plasma, Diastereoisomer B: 3 μM. The gist of the method: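 Test compound at 3 μM (0.1% DMSO) was incubated in mouse or human plasma at 37 °C and sampled in duplicate at 0, 10, 20, 30, 40 and 60 min. Reactions were stopped with acetonitrile/formic acid containing internal standard. Remaining parent was measured by UPLC-MS/MS without a calibration curve.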

Series [2] can be described thus: Stability in mouse plasma. Type of series: in vitro ADME. The method, then: Compounds and positive control samples were dissolved in 100% DMSO at 3 mM. To investigate the stability of the test compounds in plasma, samples were made by diluting test compounds into plasma from the stock solutions to obtain a test compound concentration of 3 μM (0.1% DMSO). Before addition of a test compound, 990 μl of plasma were preincubated at 37° C. for 5 min in eppendorf. After addition of a test compound, 70 μl for each time point were transferred to a 96-deepwell plate, previously warmed at 37° C. in a DUBNOFF water bath. Each compound was tested at five time points, in duplicate (10, 20, 30, 40 and 60 min). At each time point, an aliquot of 50 μl was taken and transferred to a new 96-deepwell plate, and the reaction was stopped with 200 μl of 100% acetonitrile containing 0.1% formic acid and the appropriate internal standard. Then samples were centrifuged at 1100×g for 30 min at +4° C. and supernatants were transferred to a new 96-deepwell plate. Samples were evaporated under N2 and reconstituted in H2O/ACN 0.1% Formic Acid (98:2). Analysis was performed without a calibration curve (Acquity UPLC-Waters; SciexAPI4000). Time 0 was obtained by adding acetonitrile before addition of the test compound.

The test system of series [3] is PANK2 silenced human neuroblastoma IMR32 cells (PANK2−/−). Put plainly: Coenzyme A assay in PANK2 silenced cells (LC-MS quantification of free CoA). Type of series: cell-based. The note with it: compound added twice (24 h + 24 h), relative to 0.1% DMSO controls. An outline of the steps: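 PANK2 shRNA-silenced IMR32 neuroblastoma cells were treated with compound (0.1% DMSO) for 24 h, then re-dosed with fresh compound for a further 24 h at 37 °C. TFA extracts of 1×10^6 cells were assayed for free CoA by LC-MS/MS (MRM 768.1→261.6/136.1). Results are given as fold change versus DMSO controls.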

The mark [4] stands for this setting: human, plasma, Diastereoisomer A (upfield shift in 31P NMR), read-out: t1/2, Human Plasma, Diastereoisomer A (converted).
Where [5] appears, read: human, plasma, Diastereoisomer B, read-out: t1/2, Human Plasma, Diastereoisomer B (converted).
Setting [6] is: Diastereoisomer A (upfield shift in 31P NMR), read-out: t1/2, Human Plasma, Diastereoisomer A (converted).
The mark [7] stands for this setting: Diastereoisomer A (upfield shift in 31P NMR), 3 μM, 37° C., mouse plasma, read-out: t1/2, Mouse Plasma, Diastereoisomer A.
Setting [8] is: Diastereoisomer B, 3 μM, 37° C., mouse plasma.

Consider `CC(C)(C)C(=O)OCO[P@@]1(=O)OCC(C)(C)[C@H](C(=O)NCCC(=O)OCCc2ccccn2)O1` (single isomer, unassigned) [Compound No. 82], for which the half-life at 3 µM in series [1] (setting [4]) is 28.8 min; in series [2] (mouse, plasma) it was less than 9.6 min. Besides, in series [3], the “PANK2−/− CoA (Fold Increase): fold increase in Coenzyme A (CoA) levels relative to controls” value came to 99.82 Fold Increase.
As to `C[C@H](NP1(=O)OCC(C)(C)[C@H](C(=O)NCCC(=O)OC(C)(C)C)O1)C(=O)OCCc1ccccc1` (stereo partly drawn) [compound 33, tert-butyl 3-((4R)-5,5-dimethyl-2-oxido-2-(((S)-1-oxo-1-phenethoxypropan-2-yl)amino)-1,3,2-dioxaphosphinane-4-carboxamido)propanoate], the half-life at 3 µM in series [1] (setting [4]) was greater than 60 min; in series [1] (setting [5]) it was greater than 60 min; in series [2] (mouse, plasma), less than 9.6 min. In series [2] (mouse, plasma, 3 µM), the “t1/2, Mouse Plasma, Diastereoisomer B” value is less than 9.6 min. The “PANK2−/− CoA (Fold Increase): fold increase in Coenzyme A (CoA) levels relative to controls” value in series [3] stood at 0.8 Fold Increase.
As for `COC(=O)CCNC(=O)[C@@H]1OP(=O)(OCOC(=O)C2(C(N)=O)CC2)OCC1(C)C` (stereo partly drawn) [Compound No. 83, (((4R)-4-((3-methoxy-3-oxopropyl)carbamoyl)-5,5-dimethyl-2-oxido-1,3,2-dioxaphosphinan-2-yl)oxy)methyl 1-carbamoylcyclopropane-1-carboxylate], the half-life at 3 µM was greater than 60 min in series [1] (setting [4]); less than 9.6 min in series [1] (setting [5]); less than 9.6 min in series [2] (mouse, plasma). The “t1/2, Mouse Plasma, Diastereoisomer B” value in series [2] (mouse, plasma, 3 µM) was less than 9.6 min. The “PANK2−/− CoA (Fold Increase): fold increase in Coenzyme A (CoA) levels relative to controls” value in series [3] was found to be 12.02 Fold Increase.
Turning to `COC(=O)CCNC(=O)[C@@H]1OP(=O)(NCCc2ccc(F)cc2)OCC1(C)C` (stereo partly drawn) [compound 129, methyl 3-((4R)-2-((4-fluorophenethyl)amino)-5,5-dimethyl-2-oxido-1,3,2-dioxaphosphinane-4-carboxamido)propanoate], the half-life at 3 µM in series [1] (setting [6]) is greater than 60 min; in series [2] (setting [7]) it was less than 9.6 min. Besides, in series [1] (Diastereoisomer B), the “t1/2, Human Plasma, Diastereoisomer B” value is greater than 60 min. For the same compound, the “t1/2, Mouse Plasma, Diastereoisomer B” value in series [2] (setting [8]) was less than 9.6 min. Further, the “PANK2−/− CoA (Fold Increase): fold increase in Coenzyme A (CoA) levels relative to controls” value in series [3] was 0.9 Fold Increase.
Regarding `CC(C)(C)C(=O)OCO[P@@]1(=O)OCC(C)(C)[C@H](C(=O)NCCC(=O)OCc2cncs2)O1` (single isomer, unassigned) [Compound No. 79], the half-life at 3 µM in series [1] (setting [4]) was greater than 60 min; in series [1] (setting [5]), less than 9.6 min; in series [2] (mouse, plasma), less than 9.6 min. For the same compound, in series [2] (mouse, plasma, 3 µM), the “t1/2, Mouse Plasma, Diastereoisomer B” value is less than 9.6 min. For the same compound, in series [3], the “PANK2−/− CoA (Fold Increase): fold increase in Coenzyme A (CoA) levels relative to controls” value amounted to 133.6 Fold Increase.
Regarding `COC(=O)CCNC(=O)[C@@H]1OP(=O)(NCCN2CCOCC2)OCC1(C)C` (stereo partly drawn) [compound 126, methyl 3-((4R)-5,5-dimethyl-2-((2-morpholinoethyl)amino)-2-oxido-1,3,2-dioxaphosphinane-4-carboxamido)propanoate], the half-life at 3 µM in series [1] (setting [6]) was greater than 60 min; in series [2] (setting [7]), less than 9.6 min. Further, the “t1/2, Human Plasma, Diastereoisomer B” value in series [1] (Diastereoisomer B) was greater than 60 min. Also, in series [2] (setting [8]), the “t1/2, Mouse Plasma, Diastereoisomer B” value was less than 9.6 min. Besides, the “PANK2−/− CoA (Fold Increase): fold increase in Coenzyme A (CoA) levels relative to controls” value in series [3] worked out at 1.33 Fold Increase.
`COC(=O)CCNC(=O)[C@@H]1OP(=O)(OCOC(=O)c2cnccn2)OCC1(C)C` (stereo partly drawn) [compound 86, (((4R)-4-((3-methoxy-3-oxopropyl)carbamoyl)-5,5-dimethyl-2-oxido-1,3,2-dioxaphosphinan-2-yl)oxy)methyl pyrazine-2-carboxylate]: the half-life at 3 µM was less than 9.6 min in series [1] (setting [4]); less than 9.6 min in series [1] (setting [5]); less than 9.6 min in series [2] (mouse, plasma). Also, the “t1/2, Mouse Plasma, Diastereoisomer B” value in series [2] (mouse, plasma, 3 µM) was less than 9.6 min. Also, in series [3], the “PANK2−/− CoA (Fold Increase): fold increase in Coenzyme A (CoA) levels relative to controls” value was found to be 2.45 Fold Increase.
For the compound `CC(C)(C)C(=O)OCO[P@@]1(=O)OCC(C)(C)[C@H](C(=O)NCCC(=O)OCC2CCC(=O)N2)O1` (stereo partly drawn) [Compound No. 2-113, (((2S,4R)-5,5-dimethyl-2-oxido-4-((3-oxo-3-((5-oxopyrrolidin-2-yl)methoxy)propyl)carbamoyl)-1,3,2-dioxaphosphinan-2-yl)oxy)methyl pivalate], the half-life at 3 µM was 33.6 min in series [1] (setting [4]) and less than 9.6 min in series [2] (mouse, plasma). Besides, the “PANK2−/− CoA (Fold Increase): fold increase in Coenzyme A (CoA) levels relative to controls” value in series [3] is given as 7.93 Fold Increase.
Turning to `C[C@H](NP1(=O)OCC(C)(C)[C@H](C(=O)NCCC(=O)O)O1)C(=O)OCCc1ccccc1` (stereo partly drawn) [compound 41, 3-((4R)-5,5-dimethyl-2-oxido-2-(((S)-1-oxo-1-phenethoxypropan-2-yl)amino)-1,3,2-dioxaphosphinane-4-carboxamido)propanoic acid], the half-life at 3 µM in series [1] (setting [4]) was greater than 60 min; in series [2] (mouse, plasma), 12 min. In addition, the “PANK2−/− CoA (Fold Increase): fold increase in Coenzyme A (CoA) levels relative to controls” value in series [3] came to 2.02 Fold Increase.
`CC(C)(C)C(=O)OCOP1(=O)OCC(C)(C)[C@H](C(=O)NCCC(=O)OCc2ncccn2)O1` (stereo partly drawn) [Compound No. 95, (((4R)-5,5-dimethyl-2-oxido-4-((3-oxo-3-(pyrimidin-2-ylmethoxy)propyl)carbamoyl)-1,3,2-dioxaphosphinan-2-yl)oxy)methyl pivalate]: the half-life at 3 µM in series [1] (setting [4]) was greater than 60 min; in series [1] (setting [5]) it was less than 9.6 min; in series [2] (mouse, plasma), less than 9.6 min. For the same compound, in series [2] (mouse, plasma, 3 µM), the “t1/2, Mouse Plasma, Diastereoisomer B” value is less than 9.6 min. In addition, the “PANK2−/− CoA (Fold Increase): fold increase in Coenzyme A (CoA) levels relative to controls” value in series [3] came to 54.03 Fold Increase.
On to `COC(=O)CCNC(=O)[C@@H]1O[P@@](=O)(N[C@@H](C)C(=O)OC2Cc3ccccc3C2)OCC1(C)C` [compound 43, 2,3-dihydio-1H-inden-2-yl ((2R,4R)-4-((3-methoxy-3-oxopropyl)carbamoyl)-5,5-dimethyl-2-oxido-1,3,2-dioxaphosphinan-2-yl)-L-alaninate], for which the half-life at 3 µM in series [1] (setting [4]) was greater than 60 min; in series [2] (mouse, plasma), less than 9.6 min. Moreover, the “PANK2−/− CoA (Fold Increase): fold increase in Coenzyme A (CoA) levels relative to controls” value in series [3] worked out at 1.97 Fold Increase.
Take `COC(=O)CCNC(=O)[C@@H]1OP(=O)(N[C@@H](C)C(=O)OCCc2scnc2C)OCC1(C)C` (stereo partly drawn) [compound 31, methyl 3-((4R)-5,5-dimethyl-2-(((S)-1-(2-(4-methylthiazol-5-yl)ethoxy)-1-oxopropan-2-yl)amino)-2-oxido-1,3,2-dioxaphosphinane-4-carboxamido)propanoate]: the half-life at 3 µM was greater than 60 min in series [1] (setting [4]); greater than 60 min in series [1] (setting [5]); less than 9.6 min in series [2] (mouse, plasma). In addition, the “t1/2, Mouse Plasma, Diastereoisomer B” value in series [2] (mouse, plasma, 3 µM) was less than 9.6 min. For the same compound, the “PANK2−/− CoA (Fold Increase): fold increase in Coenzyme A (CoA) levels relative to controls” value in series [3] was 1.1 Fold Increase.
Take `CC(C)(C)C(=O)OCO[P@@]1(=O)OCC(C)(C)[C@H](C(=O)NCCC(=O)OC2CCNC2)O1` (stereo partly drawn) [Compound No. 92, (((2S,4R)-5,5-dimethyl-2-oxido-4-((3-oxo-3-(pyrrolidin-3-yloxy)propyl)carbamoyl)-1,3,2-dioxaphosphinan-2-yl)oxy)methyl pivalate]: the half-life at 3 µM is 27 min in series [1] (setting [4]) and less than 9.6 min in series [2] (mouse, plasma). Further, the “PANK2−/− CoA (Fold Increase): fold increase in Coenzyme A (CoA) levels relative to controls” value in series [3] was 5.13 Fold Increase.
